Experimental data taken from PMC11345841, “Exploring 2-Sulfonylpyrimidine Warheads as Acrylamide Surrogates for Targeted Covalent Inhibition: A BTK Story” (Journal of Medicinal Chemistry, 2024).
Changes are numbered by the printed parent chain. Like-named read-outs stand apart in the source and are kept apart here.

Experiments:
[1] = target: T1, EGFR(L858R,T790M) (Homo sapiens, UniProt P00533, L858R/T790M); assay: KINOMEscan ScanTK; format: binding
T1 construct: purchased Eurofins DiscoverX KINOMEscan (scanTK)
T1 sequence (P00533 25-1210 T790M/L858R): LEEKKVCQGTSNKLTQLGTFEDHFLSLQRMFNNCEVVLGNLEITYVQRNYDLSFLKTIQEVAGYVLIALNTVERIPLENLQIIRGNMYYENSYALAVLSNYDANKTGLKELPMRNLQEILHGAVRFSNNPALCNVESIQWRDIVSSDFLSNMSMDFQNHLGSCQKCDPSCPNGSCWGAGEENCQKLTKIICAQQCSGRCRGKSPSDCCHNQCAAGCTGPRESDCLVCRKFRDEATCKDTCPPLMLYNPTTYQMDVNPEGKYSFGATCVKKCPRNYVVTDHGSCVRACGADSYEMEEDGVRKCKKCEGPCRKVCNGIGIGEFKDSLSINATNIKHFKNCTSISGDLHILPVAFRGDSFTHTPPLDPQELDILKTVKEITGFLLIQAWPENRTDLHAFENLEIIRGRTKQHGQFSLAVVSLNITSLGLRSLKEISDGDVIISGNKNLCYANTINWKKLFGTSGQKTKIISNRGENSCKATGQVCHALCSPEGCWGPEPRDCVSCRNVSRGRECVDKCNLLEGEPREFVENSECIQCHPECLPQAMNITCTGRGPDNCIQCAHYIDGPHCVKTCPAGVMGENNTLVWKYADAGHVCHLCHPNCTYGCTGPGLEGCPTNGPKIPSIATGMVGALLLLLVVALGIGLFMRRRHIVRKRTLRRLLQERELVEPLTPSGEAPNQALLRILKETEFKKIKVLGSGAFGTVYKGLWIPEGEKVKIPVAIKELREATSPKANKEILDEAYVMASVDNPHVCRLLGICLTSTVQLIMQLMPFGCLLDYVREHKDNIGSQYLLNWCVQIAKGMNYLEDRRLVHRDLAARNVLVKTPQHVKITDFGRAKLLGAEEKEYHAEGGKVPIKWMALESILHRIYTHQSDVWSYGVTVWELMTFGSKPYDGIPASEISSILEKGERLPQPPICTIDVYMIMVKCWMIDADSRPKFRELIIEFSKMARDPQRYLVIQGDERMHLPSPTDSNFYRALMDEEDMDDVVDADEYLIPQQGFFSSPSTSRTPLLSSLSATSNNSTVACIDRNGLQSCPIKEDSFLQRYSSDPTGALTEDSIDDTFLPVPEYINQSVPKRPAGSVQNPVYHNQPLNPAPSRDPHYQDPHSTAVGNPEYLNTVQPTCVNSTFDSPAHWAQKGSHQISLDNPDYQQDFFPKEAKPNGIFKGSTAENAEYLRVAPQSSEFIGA

[2] = target: T2, ABL1-nonphosphorylated (Homo sapiens, UniProt P00519); assay: KINOMEscan ScanTK; format: binding
T2 construct: purchased Eurofins DiscoverX KINOMEscan (scanTK)

[3] = target: T3, ABL1(T315I)-nonphosphorylated (Homo sapiens, UniProt P00519, T315I); assay: KINOMEscan ScanTK; format: binding
T3 construct: purchased Eurofins DiscoverX KINOMEscan (scanTK)

[4] = system: TMD8 cells; assay: Annexin V/propidium iodide staining (apoptosis, viability); format: cell-based, human; settings: 72 h
Protocol: We tested the effects of compounds in TMD8 cells, derived from an activated B-cell DLBCL. These cells have constitutive signaling via the BCR and additionally carry MYD88^L265P and CD79B mutations which give rise to My-T-BCR complex. […] Apoptosis was quantified after exposure of cells to compounds for 72 h using annexin V/PI staining and flow cytometry (Figure 3E, Figure S4).
Cells were washed in phosphate-buffered saline and resuspended in 300 μL of annexin V staining buffer (10 mM HEPES HCl (pH 7.4), 140 mM NaCl, 2.5 mM CaCl2) supplemented with 2.5 μg/mL fluorescein isothiocyanate-labeled annexin V (kind gift from Dr Patrick Duriez, Protein Core Facility, University of Southampton) and 12.5 μM propidium iodide (Invitrogen). Cells were analyzed by flow cytometry (Canto II system, BD Biosciences) and the percentage of viable cells was determined by calculating the proportion of Annexin V-/PI-cells as a percentage of all cells (results for untreated cells at 72 h set to 100%).

[5] = target: wild-type BTK (Homo sapiens, UniProt Q06187); assay: BTK in vitro activity assay (ADP-Glo, poly-Glu:Tyr phosphorylation, TCEP); settings: for remaining activity at 0.1 µM: read-out: Remaining BTK activity (%)
Chain of wild-type BTK (Q06187 whole entry): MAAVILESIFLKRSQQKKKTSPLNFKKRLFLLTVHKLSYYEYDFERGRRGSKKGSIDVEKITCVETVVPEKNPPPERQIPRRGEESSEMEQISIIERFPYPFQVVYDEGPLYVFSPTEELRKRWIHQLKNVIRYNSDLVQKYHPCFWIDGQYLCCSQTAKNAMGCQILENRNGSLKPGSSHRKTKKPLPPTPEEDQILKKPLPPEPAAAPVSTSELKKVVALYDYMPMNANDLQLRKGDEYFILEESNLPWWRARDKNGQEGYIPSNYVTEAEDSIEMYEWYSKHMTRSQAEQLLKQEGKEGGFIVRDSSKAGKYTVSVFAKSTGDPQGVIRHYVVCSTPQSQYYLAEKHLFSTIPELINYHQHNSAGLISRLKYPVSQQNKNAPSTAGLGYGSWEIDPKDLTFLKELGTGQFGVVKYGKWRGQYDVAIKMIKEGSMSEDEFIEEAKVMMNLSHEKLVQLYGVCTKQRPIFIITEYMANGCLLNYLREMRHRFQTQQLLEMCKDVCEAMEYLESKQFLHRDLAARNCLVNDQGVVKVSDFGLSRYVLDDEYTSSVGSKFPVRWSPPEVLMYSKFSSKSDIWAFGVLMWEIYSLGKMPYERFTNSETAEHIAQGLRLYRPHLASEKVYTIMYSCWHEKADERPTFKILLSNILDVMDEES

[6] = target: T4, FLT3-autoinhibited (Homo sapiens, UniProt P36888); assay: KINOMEscan ScanTK; format: binding
T4 construct: purchased Eurofins DiscoverX KINOMEscan (scanTK)
T4 sequence (P36888 27-993): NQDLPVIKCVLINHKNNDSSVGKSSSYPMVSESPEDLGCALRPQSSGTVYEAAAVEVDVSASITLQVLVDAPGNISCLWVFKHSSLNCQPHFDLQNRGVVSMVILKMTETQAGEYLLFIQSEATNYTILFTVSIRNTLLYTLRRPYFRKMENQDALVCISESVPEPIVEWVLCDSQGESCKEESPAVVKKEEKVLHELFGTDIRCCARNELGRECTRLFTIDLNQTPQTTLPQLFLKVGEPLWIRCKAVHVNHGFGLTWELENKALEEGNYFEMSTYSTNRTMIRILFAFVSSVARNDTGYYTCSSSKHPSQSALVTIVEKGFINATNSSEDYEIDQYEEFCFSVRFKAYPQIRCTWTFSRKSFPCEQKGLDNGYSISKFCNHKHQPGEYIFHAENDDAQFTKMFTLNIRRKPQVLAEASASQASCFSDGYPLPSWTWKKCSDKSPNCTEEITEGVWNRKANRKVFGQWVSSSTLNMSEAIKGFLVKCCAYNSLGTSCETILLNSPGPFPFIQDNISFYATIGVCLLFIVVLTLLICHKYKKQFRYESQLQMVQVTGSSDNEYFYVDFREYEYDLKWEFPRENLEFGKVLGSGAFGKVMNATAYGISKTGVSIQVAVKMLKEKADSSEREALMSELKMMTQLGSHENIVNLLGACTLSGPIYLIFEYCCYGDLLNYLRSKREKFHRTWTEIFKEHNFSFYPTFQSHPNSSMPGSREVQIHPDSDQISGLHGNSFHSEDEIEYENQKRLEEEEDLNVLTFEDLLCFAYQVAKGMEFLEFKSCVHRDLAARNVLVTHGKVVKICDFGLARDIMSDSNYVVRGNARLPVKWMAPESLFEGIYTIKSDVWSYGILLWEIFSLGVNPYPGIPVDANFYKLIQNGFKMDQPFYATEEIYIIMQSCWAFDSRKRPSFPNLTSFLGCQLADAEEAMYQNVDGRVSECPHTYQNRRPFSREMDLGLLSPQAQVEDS

[7] = target: T5, ABL1(Q252H)-nonphosphorylated (Homo sapiens, UniProt P00519, Q252H); assay: KINOMEscan ScanTK; format: binding
T5 construct: purchased Eurofins DiscoverX KINOMEscan (scanTK)

[8] = target: T6, FLT3(N841I) (Homo sapiens, UniProt P36888, N841I); assay: KINOMEscan ScanTK; format: binding
T6 construct: purchased Eurofins DiscoverX KINOMEscan (scanTK)
T6 sequence (P36888 27-993 N841I): T4 sequence (P36888 27-993) with N815I

SMILES | difference in % of control versus compound Ib at 1 µM ([1]; @1000nM) [%] | remaining binding at 1 µM ([1]; @1000nM, read-out: %Control) [%] | remaining binding at 1 µM ([1]; read-out: %Control @1000nM) [%] | difference in %Control from reference compound Ib at 1 µM ([2]; @1000nM) [%] | remaining binding at 1 µM ([2]; @1000nM, read-out: %Control) [%] | remaining binding at 1 µM ([2]; read-out: %Control @1000nM) [%] | difference in % of control versus compound Ib at 1 µM ([3]; @1000nM) [%] | remaining binding at 1 µM ([3]; @1000nM, read-out: %Control) [%] | remaining binding at 1 µM ([3]; read-out: %Control @1000nM) [%] | IC50 [5] [nM] | difference in %Control vs compound Ib at 1 µM ([6]; @1000nM) [%] | remaining binding at 1 µM ([6]; @1000nM, read-out: %Control) [%] | remaining binding at 1 µM ([6]; read-out: %Control @1000nM) [%] | difference in %Control versus reference compound Ib at 1 µM ([7]; @1000nM) [%] | remaining binding at 1 µM ([7]; @1000nM, read-out: %Control) [%] | remaining binding at 1 µM ([7]; read-out: %Control @1000nM) [%] | difference in %Control versus compound Ib at 1 µM ([8]; @1000nM) [%] | remaining binding at 1 µM ([8]; @1000nM, read-out: %Control) [%] | remaining binding at 1 µM ([8]; read-out: %Control @1000nM) [%] | induction of apoptosis [4] | also measured
CNC(=O)c1cnc(S(C)(=O)=O)nc1N1CCCC(n2nc(-c3ccc(Oc4ccccc4)cc3)c3c(N)ncnc32)C1 (stereo not shown) [Compound 8d, 4-(3-(4-Amino-3-(4-phenoxyphenyl)-1H-pyrazolo[3,4-d]pyrimidin-1-yl)piperidin-1-yl)-N-methyl-2-(methylsulfonyl)pyrimidine-5-carboxamide] | 49 | 59 | 59 | 24.5 | 33 | 33 | -16 | 77 | 77 | 28 ± 6 | 3 | 100 | 100 | 13 | 26 | 26 | 37 | 56 | 56 | induced apoptosis | fold lower apoptotic potency than Ibrutinib [4]: ~10 fold; remaining activity at 0.1 µM [5]: 2 ± 0.5%
Cc1cnc(S(C)(=O)=O)nc1N1CCCC(n2nc(-c3ccc(Oc4ccccc4)cc3)c3c(N)ncnc32)C1 (stereo not shown) [Compound 8a, 1-(1-(5-Methyl-2-(methylsulfonyl)pyrimidin-4-yl)piperidin-3-yl)-3-(4-phenoxyphenyl)-1H-pyrazolo[3,4-d]pyrimidin-4-amine] | 81 | 91 | 91 | 38.5 | 47 | 47 | -11 | 82 | 82 | 24 ± 2 | -18 | 79 | 79 | 25 | 38 | 38 | 40 | 59 | 59 | induced apoptosis | fold lower apoptotic potency than Ibrutinib [4]: ~10 fold; remaining activity at 0.1 µM [5]: 4 ± 1%
C=CC(=O)N1CCC[C@@H](n2nc(-c3ccc(Oc4ccccc4)cc3)c3c(N)ncnc32)C1 [Compound 1g, Ibrutinib, reference compound] | – | – | – | – | – | – | – | 93 | 93 | – | – | – | – | – | 13 | 13 | – | – | – | – | –

Second part, led by results:

difference in % of control versus compound Ib at 1 µM ([1]; @1000nM) [%] | remaining binding at 1 µM ([1]; @1000nM, read-out: %Control) [%] | remaining binding at 1 µM ([1]; read-out: %Control @1000nM) [%] | difference in %Control from reference compound Ib at 1 µM ([2]; @1000nM) [%] | remaining binding at 1 µM ([2]; @1000nM, read-out: %Control) [%] | remaining binding at 1 µM ([2]; read-out: %Control @1000nM) [%] | difference in % of control versus compound Ib at 1 µM ([3]; @1000nM) [%] | remaining binding at 1 µM ([3]; @1000nM, read-out: %Control) [%] | remaining binding at 1 µM ([3]; read-out: %Control @1000nM) [%] | IC50 [5] [nM] | difference in %Control vs compound Ib at 1 µM ([6]; @1000nM) [%] | remaining binding at 1 µM ([6]; @1000nM, read-out: %Control) [%] | remaining binding at 1 µM ([6]; read-out: %Control @1000nM) [%] | difference in %Control versus reference compound Ib at 1 µM ([7]; @1000nM) [%] | remaining binding at 1 µM ([7]; @1000nM, read-out: %Control) [%] | remaining binding at 1 µM ([7]; read-out: %Control @1000nM) [%] | difference in %Control versus compound Ib at 1 µM ([8]; @1000nM) [%] | remaining binding at 1 µM ([8]; @1000nM, read-out: %Control) [%] | remaining binding at 1 µM ([8]; read-out: %Control @1000nM) [%] | SMILES | induction of apoptosis [4] | also measured
77 | 87 | 87 | 36.5 | 45 | 45 | -9 | 84 | 84 | – | 3 | 100 | 100 | 23 | 36 | 36 | 54 | 73 | 73 | CCOC(=O)c1cnc(S(C)(=O)=O)nc1N1CCC[C@@H](n2nc(-c3ccc(Oc4ccccc4)cc3)c3c(N)ncnc32)C1 [Compound 8c, Ethyl (R)-4-(3-(4-Amino-3-(4-phenoxyphenyl)-1H-pyrazolo[3,4-d]pyrimidin-1-yl)piperidin-1-yl)-2-(methylsulfonyl)pyrimidine-5-carboxylate] | essentially inactive | –
69 | 79 | 79 | 56.5 | 65 | 65 | -17 | 76 | 76 | 57 ± 1 | -7 | 90 | 90 | 52 | 65 | 65 | 43 | 62 | 62 | COC(=O)c1cnc(S(C)(=O)=O)nc1N1CCCC(n2nc(-c3ccc(Oc4ccccc4)cc3)c3c(N)ncnc32)C1 (stereo not shown) [Compound 8b, Methyl 4-(3-(4-Amino-3-(4-phenoxyphenyl)-1H-pyrazolo[3,4-d]pyrimidin-1-yl)piperidin-1-yl)-2-(methylsulfonyl)pyrimidine-5-carboxylate] | induced apoptosis | remaining activity at 0.1 µM [5]: 2 ± 1%
